Key:
[1] = molecular target: T1, NPC1-like intracellular cholesterol transporter 1 (Homo sapiens, UniProt Q9UHC9); test: Displacement of [35S](2S,3S,4S,5R,6S)-6-(4-((2S,3R)-3-((S)-3-(4-fluorophenyl)-3-hydroxypropyl)-1-(4-(3-(methylsulfonamido)prop-1-ynyl)phenyl)-4-oxoazetidin-2-yl)phenoxy)-3,4,5-trihydroxytetrahydro-2H-pyran-2-carboxylic acid from human recombinant NPC1L1 expressed in HEK293 cells; assay type: cell-based
T1 sequence (Q9UHC9 whole entry): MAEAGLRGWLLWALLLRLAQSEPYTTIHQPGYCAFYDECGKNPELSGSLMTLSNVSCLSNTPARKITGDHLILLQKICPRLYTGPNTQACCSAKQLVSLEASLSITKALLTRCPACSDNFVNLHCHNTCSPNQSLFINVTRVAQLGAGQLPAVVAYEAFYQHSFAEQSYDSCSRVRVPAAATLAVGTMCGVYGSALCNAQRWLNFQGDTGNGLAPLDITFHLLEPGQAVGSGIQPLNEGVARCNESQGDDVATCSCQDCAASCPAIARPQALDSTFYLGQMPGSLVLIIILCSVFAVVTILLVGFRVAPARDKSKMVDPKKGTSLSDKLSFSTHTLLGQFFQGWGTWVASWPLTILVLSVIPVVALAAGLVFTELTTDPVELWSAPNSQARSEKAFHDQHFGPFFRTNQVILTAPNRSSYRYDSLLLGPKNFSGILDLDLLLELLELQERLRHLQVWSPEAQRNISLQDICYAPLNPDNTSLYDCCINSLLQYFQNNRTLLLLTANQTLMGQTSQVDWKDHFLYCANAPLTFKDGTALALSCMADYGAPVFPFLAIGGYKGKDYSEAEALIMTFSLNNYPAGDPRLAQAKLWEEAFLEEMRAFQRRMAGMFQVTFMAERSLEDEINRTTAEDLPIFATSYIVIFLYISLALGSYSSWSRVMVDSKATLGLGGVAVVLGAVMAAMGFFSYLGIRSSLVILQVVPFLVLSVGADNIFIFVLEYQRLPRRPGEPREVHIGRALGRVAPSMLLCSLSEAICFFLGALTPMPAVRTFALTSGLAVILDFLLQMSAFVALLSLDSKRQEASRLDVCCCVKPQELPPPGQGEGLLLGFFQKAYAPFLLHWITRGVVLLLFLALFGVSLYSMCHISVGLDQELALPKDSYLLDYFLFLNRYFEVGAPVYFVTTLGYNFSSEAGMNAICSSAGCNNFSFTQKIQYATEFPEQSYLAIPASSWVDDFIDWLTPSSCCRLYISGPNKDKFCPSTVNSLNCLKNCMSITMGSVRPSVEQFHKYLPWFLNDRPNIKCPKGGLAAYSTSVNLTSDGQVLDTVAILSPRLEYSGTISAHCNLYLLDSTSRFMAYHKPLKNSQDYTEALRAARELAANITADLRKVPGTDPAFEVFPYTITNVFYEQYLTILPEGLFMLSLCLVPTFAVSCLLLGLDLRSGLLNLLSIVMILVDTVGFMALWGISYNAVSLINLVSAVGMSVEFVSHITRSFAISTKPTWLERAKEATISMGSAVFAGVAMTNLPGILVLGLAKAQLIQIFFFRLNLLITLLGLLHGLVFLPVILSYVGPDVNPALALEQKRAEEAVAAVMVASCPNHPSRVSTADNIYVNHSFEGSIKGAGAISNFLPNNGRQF

[2] = molecular target: T1, NPC1-like intracellular cholesterol transporter 1; test: Displacement of [35S](2S,3S,4S,5R,6S)-6-(4-((2S,3R)-3-((S)-3-(4-fluorophenyl)-3-hydroxypropyl)-1-(4-(3-(methylsulfonamido)prop-1-ynyl)phenyl)-4-oxoazetidin-2-yl)phenoxy)-3,4,5-trihydroxytetrahydro-2H-pyran-2-carboxylic acid from NPC1L1 in human enterocyte brush border membrane
[3] = molecular target: T2, Niemann-Pick C1-like 1 protein (Macaca mulatta, UniProt A0MJA5); test: Displacement of [35S](2S,3S,4S,5R,6S)-6-(4-((2S,3R)-3-((S)-3-(4-fluorophenyl)-3-hydroxypropyl)-1-(4-(3-(methylsulfonamido)prop-1-ynyl)phenyl)-4-oxoazetidin-2-yl)phenoxy)-3,4,5-trihydroxytetrahydro-2H-pyran-2-carboxylic acid from NPC1L1 in rhesus monkey enterocyte brush border membrane
T2 sequence (A0MJA5 whole entry): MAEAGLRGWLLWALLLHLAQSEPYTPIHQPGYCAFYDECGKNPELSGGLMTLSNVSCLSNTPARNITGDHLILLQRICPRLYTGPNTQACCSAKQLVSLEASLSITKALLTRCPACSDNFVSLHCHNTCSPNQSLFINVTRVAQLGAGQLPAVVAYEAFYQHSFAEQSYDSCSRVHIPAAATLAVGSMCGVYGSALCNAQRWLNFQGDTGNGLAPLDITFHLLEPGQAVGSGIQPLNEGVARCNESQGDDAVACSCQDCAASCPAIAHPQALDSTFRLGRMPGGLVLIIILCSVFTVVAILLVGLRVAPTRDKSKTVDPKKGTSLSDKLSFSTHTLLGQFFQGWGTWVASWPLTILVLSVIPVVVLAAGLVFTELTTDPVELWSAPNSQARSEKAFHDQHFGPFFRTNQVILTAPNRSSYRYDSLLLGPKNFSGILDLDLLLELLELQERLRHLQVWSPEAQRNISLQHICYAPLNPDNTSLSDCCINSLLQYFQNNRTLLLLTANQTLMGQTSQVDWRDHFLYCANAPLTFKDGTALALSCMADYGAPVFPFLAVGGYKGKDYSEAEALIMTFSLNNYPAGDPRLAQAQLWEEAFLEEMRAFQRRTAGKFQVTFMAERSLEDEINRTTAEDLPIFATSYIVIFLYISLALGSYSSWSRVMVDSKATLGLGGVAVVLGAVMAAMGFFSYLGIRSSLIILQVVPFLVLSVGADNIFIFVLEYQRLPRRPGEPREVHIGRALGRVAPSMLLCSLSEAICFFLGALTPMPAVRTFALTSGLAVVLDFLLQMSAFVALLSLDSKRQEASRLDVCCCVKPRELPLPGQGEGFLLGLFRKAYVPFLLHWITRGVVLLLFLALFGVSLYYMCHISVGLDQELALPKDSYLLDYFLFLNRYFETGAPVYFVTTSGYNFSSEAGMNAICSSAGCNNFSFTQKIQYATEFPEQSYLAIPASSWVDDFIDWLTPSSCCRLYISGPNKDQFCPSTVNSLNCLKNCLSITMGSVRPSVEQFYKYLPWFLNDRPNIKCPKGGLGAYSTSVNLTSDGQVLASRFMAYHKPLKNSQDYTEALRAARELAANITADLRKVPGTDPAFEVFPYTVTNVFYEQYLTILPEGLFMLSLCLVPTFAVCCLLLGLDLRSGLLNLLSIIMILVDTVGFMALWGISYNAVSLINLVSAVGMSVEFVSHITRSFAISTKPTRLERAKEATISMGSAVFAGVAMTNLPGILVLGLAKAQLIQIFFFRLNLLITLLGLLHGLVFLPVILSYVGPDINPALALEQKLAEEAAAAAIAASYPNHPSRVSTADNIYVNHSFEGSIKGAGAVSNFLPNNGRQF

IC50 [1] [nM]	IC50 [2] [nM]	IC50 [3] [nM]	SMILES
7	20	20	CS(=O)(=O)NCC#CN1C(=O)[C@H](CC[C@H](O)c2ccc(F)cc2)[C@H]1c1ccc(O[C@@H]2O[C@H](C(=O)O)[C@@H](O)[C@H](O)[C@H]2O)cc1
300	300	30	O=C(O)[C@H]1O[C@@H](Oc2ccc([C@@H]3[C@@H](CC[C@H](O)c4ccc(F)cc4)C(=O)N3c3ccc(F)cc3)cc2)[C@H](O)[C@@H](O)[C@@H]1O
660	5300	146000	O=C([C@@H]1C[C@@H](c2ccccc2)CN1C(=O)c1ccccc1)N1CCC2(C=Cc3ccccc32)CC1
2500	10000	77000	CC(C)(C)c1ccc(C(=O)N2CCC3(CC2)C(=O)N(CC(=O)N2CCCCC2)CN3c2ccccc2)cc1
